From US12642791B2, “Inhibitors of lysyl oxidases” (UNIVERSITY OF SOUTH CAROLINA, priority 2021, dated 2026)

Assays:
TM01278 PDX organoids = test: PDX-derived TNBC organoids, combination with doxorubicin; type: cell-based, human; conditions: BAPN (25 mM) with doxorubicin (40 nM), 3D culture with collagen I, 9 days
Description: FIG. 36. Combination of 6403 and 6415 with doxorubicin reduced the growth of the TNBC organoids. A. Representative images of TM01278 PDX organoids at day 0 and day 9 after treatment with doxorubicin (50 nM) and 6403 and 6415 treatments, alone or in combination. B. Quantification of organoid diameter and viability upon combination therapy for 9 days.
TNBC organoids were established from a fresh surgical tissue by cutting the tumor into small pieces and incubating in collagenase A solution with ROCK inhibitor on a shaker at 37° C. for 30 minutes. The collagenase activity was inhibited by adding FBS, and pipetting was done to ensure the formation of almost a single cell solution. After several washes with PBS, the cell pellet was dissolved in matrigel. Breast organoid media containing ROCK and GSK inhibitors was added after the Matrigel solidified. See, Sachs, N. et al. A Living Biobank of Breast Cancer Organoids Captures Disease Heterogeneity. Cell 172, 373-386 e310, doi:10.1016/j.cell.2017.11.010 (2018). For drug testing studies, organoids were disrupted to single cells by digesting at 37° C. for 30 mins with TrypLE (A1217701, Gibco, NY, USA) in the presence of 10 μM Rock inhibitor (s1049, Selleckchem, TX, USA). Organoids were plated into wells of 96 well plate (20.000 cells/well) on a collagen-coated surface with media containing 2% Matrigel (356252, Corning, NY, USA). Drugs were added 72 hours after plating. Cells were grown in the presence of drug or vehicle for 9 days, and photos were taken from each well to show the organoid size. Organoid viability was measured by using 3D Cell Titer Glo (Promega, USA) kit.

TM01278 PDX = test: Doxorubicin-resistant TNBC PDX tumors; type: in vivo
Description: FIG. 27. Targeting LOX in TNBC PDX organoids or tumors overcomes resistance. A. Scheme showing the selection pipeline of PDXs for in vivo testing. B. Correlation analysis of LOX mRNA expression with hypoxia and focal adhesion scores in 15 different TNBC PDX models. Red dots show the positions of the selected TM01278. C. Representative images of TM01278 PDX organoids at day 0 and day 9 after treatment with doxorubicin (40 nM) and BAPN (25 mM) treatment, alone or in combination (left) and quantification of organoid diameter upon combination therapy for 9 days (right) (n=12 (vehicle, Doxo, BAPN), n=11 (Doxo+BAPN)). D. Tumor growth of TM01278 PDX upon treatment with doxorubicin (2 mg/kg) and BAPN (100 mg/kg), alone or in combination (n=5). […] E. Quantification of Picrosirius red staining in PDX tumors from D (n=4). F. Doxorubicin fluorescence quantification in tumors from D (n=6). G. Western Blots of FAK/Src signaling in PDXs treated with doxorubicin and BAPN alone or in combination.

[1] = in vivo; cited from earlier work
MDA-MB-43614 = test: Doxorubicin re-sensitization of collagen I-embedded TNBC cells; type: cell-based, human
MDA-MB-231 xenografts = test: Acquired doxorubicin resistant xenografts; type: in vivo; conditions: BAPN 100 mg/kg added to doxorubicin 2.5 mg/kg
Description: To test the ability of LOX inhibition to overcome doxorubicin resistance in chemotherapy-refractory TNBC in vivo, the inventors first treated MDA-MB-231 xenografts with doxorubicin until an accelerated tumor growth was achieved.
At this point, BAPN (100 mg/kg) was added to half of the doxorubicin-resistant tumors while the rest continued to receive doxorubicin alone (2.5 mg/kg).
FIG. 26. Inhibiting LOX overcomes resistance in acquired doxorubicin resistant MDA-MB-231 xenografts. A. Tumor growth in xenografts treated with low dose doxorubicin until resistance develops followed by treatment with the combination of doxorubicin (2.5 mg/kg) and the LOX inhibitor, BAPN (100 mg/kg). B. Relative LOX activity in tumors from A. C. Representative images of Picrosirius red in tumors from A.

[2] = test system: cellular lysyl oxidase (LOX) activity, MDA-MB-231 cells; test: Cell-based lysyl oxidase activity assay (Abcam kit); parameters: species or system human; conditions: read-out: IC50 for cellular lysyl oxidase inhibition
Source text: As the available LOX inhibitors are either not very potent or have toxicity, the inventors developed a robust screening pipeline shown in FIG. 28 to identify potent and safe LOX-specific and pan-LOX inhibitors. Briefly, a high-throughput cell-based LOX activity (Abcam) screen (HTS) was done for more than 5,000 drug-like compounds from the EXPRESS-Pick diversified library (4,480 molecules, ChemBridge) and Tocriscreen library of bioactive compounds (1,280 compounds, Tocris), each at a single concentration of 10 μM. […] The toxic molecules were counter screened with cell cytotoxicity assay and filtered out.
FIGS. 34. […] IC50 for cellular lysyl oxidase activity upon treatment of MDA-MB-231 cells with different LOX inhibitors. uM=microM.
For cell-based lysyl oxidase activity, fluorometric Lysly Oxidase Activity Assay Kit (Abcam, USA) was used according to manufacturer's instructions. Briefly, after the treatment, 50 μl of supernatant from each well was incubated with reagent mix and fluorescence measured in multimode-reader at Ex/Em=540/590 nm wavelength.

MDA-MB-231 cells = test: Doxorubicin chemosensitization in 3D collagen I culture; type: cell-based, human; conditions: collagen I-embedded cells, combination with doxorubicin
Description: Collagen solution was prepared at a concentration of 0.5-1 mg/ml from the rat tail collagen I (Corning, USA) with a neutralization step including the addition of 1N NaOH solution. Cells were trypsinazed and resuspended in collagen:matrigel mix (1:1). 8×10^3 cells were seeded into 96-well or μ-Slide 8-well glass bottom chambers. After 1 hour of incubation at room temperature, media was added on top of the solidified collagen:matrigel mix. Drug treatments were done 12 hours after cell seeding.
Cells were embedded in type I collagen:matrigel mix as described above. Cells were grown in the presence of doxorubicin or LOX inhibitors alone or combination of LOX inhibitors with doxorubicin for 48 hours. After the treatment, cell viability was measured by using 3D Cell Titer Glo (Promega, USA) kit.

MDA-MB-15714 = test: Doxorubicin re-sensitization of collagen I-embedded TNBC cells; type: cell-based, human
Caki-1 cells = test: ECM crosslinking in kidney cancer cells; type: cell-based, human; conditions: 6232 at 10 uM, BAPN at 10 mM
Description: (§1) Immunofluorescence staining of cells was done in μ-Slide 8-well glass bottom chambers (Ibidi, Germany). Cells were fixed with 4% paraformaldehyde for 20 min, permeabilized with 0.5% Triton X-100 for 10 min and blocked in 5% BSA-PBS. Samples were incubated with primary (Collagen I, Fibronectin, F-actin, a-SMA) and secondary Alexa Fluor 647 or 488-labeled antibodies for 1.5 hours at room temperature. Cells were also counterstained with DAPI for 5 min. Images were acquired using ZEN 2012 SP5 (Black) LSM 700 (Carl Zeiss, DE).

[3] = test system: MDA-MB-231 cells embedded in collagen I; test: ECM crosslinking by collagen and fibronectin immunofluorescence staining; type: cell-based, human
Description: FIG. 31. […] A. Inhibition of LOX activity in MDA-MB-231 cells treated with 5 μM of the LOX inhibitors. B. Doxorubicin sensitization with 6232 and its analogs, 6403 and 6415, in 3D collagen-I culture. C. Collagen and fibronectin staining of vehicle or 6232 or 6403 or 6415-treated MDA-MB-231 cells embedded in collagen I. BAPN is used as a positive control.
as §1

N#CCCN [BAPN, 6-aminopropionitrile]
tumor organoid size (TM01278 PDX organoids): significantly decreased tumor organoid size
LOX activity (TM01278 PDX; BAPN 100 mg/kg): reduced
doxorubicin penetration (TM01278 PDX; BAPN 100 mg/kg): enhanced doxorubicin penetration
fibrillar collagen content (TM01278 PDX; BAPN 100 mg/kg): reduced
tumor growth (TM01278 PDX; BAPN 100 mg/kg with doxorubicin 2 mg/kg): reduced tumor growth
toxicity in the clinic [1]: showed toxicity in the clinic
doxorubicin re-sensitization (MDA-MB-43614): re-sensitized
LOX activity in tumors (MDA-MB-231 xenografts): reduction in LOX activity
fibrillar collagen in tumors (MDA-MB-231 xenografts): reduction
survival (MDA-MB-231 xenografts): improved survival
tumor growth (MDA-MB-231 xenografts): significant decrease in tumor growth
IC50 [2]: > 100 µM
doxorubicin sensitization (MDA-MB-231 cells): re-sensitized
doxorubicin re-sensitization (MDA-MB-15714): re-sensitized
ECM crosslinking (Caki-1 cells): decrease in ECM crosslinking
ECM crosslinking (collagen and fibronectin staining) [3]: decrease in ECM crosslinking
